Data from PMC7427786, “An essential role of acetyl coenzyme A in the catalytic cycle of insect arylalkylamine N-acetyltransferase” (Communications Biology, 2020).

How the values were obtained:
Type in all cases: binding
[1] = target: T1, Dat (dopamine N-acetyltransferase; Dat21-230) (Drosophila melanogaster, UniProt Q94521); assay: isothermal titration calorimetry
T1 construct: gene speck; truncated Dat residues 21-230 of 240; pGEX-6p3, GST tag cut by PreScission protease; E. coli BL21 (DE3)
Text: isothermal titration calorimetry on Dat (dopamine N-acetyltransferase; Dat21-230)

[2] = target: T1, Dat (dopamine N-acetyltransferase; Dat21-230); assay: X-ray crystallography (cocrystallization of Dat, Ac-CoA and PEA); NMR HSQC; conditions: ternary complex with CoA; product formed in the crystal
[3] = target: T1, Dat (dopamine N-acetyltransferase; Dat21-230); assay: X-ray crystallography, cocrystal; conditions: substrate pocket

T1 sequence (Q94521 56-265): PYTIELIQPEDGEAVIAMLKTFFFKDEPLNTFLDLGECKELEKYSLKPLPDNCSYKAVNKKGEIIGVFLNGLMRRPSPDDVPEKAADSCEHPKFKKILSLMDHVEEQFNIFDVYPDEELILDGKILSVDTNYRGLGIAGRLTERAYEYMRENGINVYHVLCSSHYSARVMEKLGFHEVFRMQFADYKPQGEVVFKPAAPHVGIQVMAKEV

SMILES: CC(=O)SCCNC(=O)CCNC(=O)[C@H](O)C(C)(C)COP(=O)(O)OP(=O)(O)OC[C@H]1O[C@@H](n2cnc3c(N)ncnc32)[C@H](O)[C@@H]1OP(=O)(O)O [Ac-CoA]
- Kd [1]: 5.51 ± 1.92 µM

SMILES: CC(=O)NCCc1ccccc1 [Ac-PEA]
- X-ray crystallography (cocrystallization of Dat, Ac-CoA and PEA); NMR HSQC [2]: crystals of Dat with two products, CoA and Ac-PEA (PDB code: 5GI7)

SMILES: CC(=O)NCCc1c[nH]c2ccccc12 [Ac-TRYP]
- X-ray crystallography, cocrystal ([3]; ternary complex with CoA, 1.36 Å): Dat/CoA/Ac-TRYP (representing the enzyme-products complex)

SMILES: CC(C)(COP(=O)(O)OP(=O)(O)OC[C@H]1O[C@@H](n2cnc3c(N)ncnc32)[C@H](O)[C@@H]1OP(=O)(O)O)[C@@H](O)C(=O)NCCC(=O)NCCS [CoA]
- Kd [1]: 153 ± 26.5 µM

SMILES: OCCc1c[nH]c2ccccc12 [tryptophol]
- X-ray crystallography, cocrystal ([3]; ternary complex with Ac-CoA, dead-end analog of tryptamine, 1.28 Å): Dat/Ac-CoA/tryptophol (mimicking the enzyme-substrates complex)
